# Patent publication US5393743A, “Erythromycin derivatives” (Abbott Laboratories, priority 1993, dated 1995)
# Like-named read-outs stand apart in the source and are kept apart here.
# What was measured:
# [1] = test system: Acinetobacter calcoaceticus CMX 669; experiment: In vitro antibacterial activity, agar dilution MIC; format: cell-based; conditions: Acinetobacter calcoaceticus CMX 669, BHI agar, 35°-37° C., 20 to 24 hours
# Experimental: (§1) Representative compounds of the present invention were assayed in vitro for antibacterial activity as follows: Twelve petri dishes containing successive aqueous dilutions of the test compound mixed with 10 mL of sterilized Brain Heart Infusion (BHI) agar (Difco 0418-01-5) were prepared. Each plate was inoculated with 1:100 (or 1:10 for slow-growing strains, such as Micrococcus and Streptococcus) dilutions of up to 32 different microorganisms, using a Steers replicator block. The inoculated plates were incubated 35°-37° C. for 20 to 24 hours. In addition, a control plate, using BHI agar containing no test compound, was prepared and incubated at the beginning and end of each test.
# (§2) An additional plate containing a compound having known susceptibility patterns for the organisms being tested and belonging to the same antibiotic class as the test compound was also prepared and incubated as a further control, as well as to provide test-to-test comparability. Erythromycin A was used for this purpose.
# (§3) After incubation, each disk was read. The minimum inhibitory concentration (MIC) was defined as the lowest concentration of drug yielding no growth, a slight haze, or sparsely isolated colonies on the inoculum spot as compared to the growth control.
# [2] = test system: Enterobacter aerogenes ATCC 13048; experiment: In vitro antibacterial activity, agar dilution MIC; format: cell-based; conditions: Enterobacter aerogenes ATCC 13048, BHI agar, 35°-37° C., 20 to 24 hours
# Experimental: as §1, §2, §3
# [3] = test system: Enterococcus faecium ATCC 8043; experiment: In vitro antibacterial activity, agar dilution MIC; format: cell-based
# Experimental: as §1, §2, §3
# Escherichia coli DC-2 = experiment: In vitro antibacterial activity, agar dilution MIC; format: cell-based; conditions: Escherichia coli DC-2, BHI agar, 35°-37° C., 20 to 24 hours
# Experimental: as §1, §2, §3
# Escherichia coli H560 = experiment: In vitro antibacterial activity, agar dilution MIC; format: cell-based; conditions: Escherichia coli H560, BHI agar, 35°-37° C., 20 to 24 hours
# Experimental: as §1, §2, §3
# Escherichia coli Juhl = experiment: In vitro antibacterial activity, agar dilution MIC; format: cell-based; conditions: Escherichia coli Juhl, BHI agar, 35°-37° C., 20 to 24 hours
# Experimental: as §1, §2, §3
# Escherichia coli KNK 437 = experiment: In vitro antibacterial activity, agar dilution MIC; format: cell-based; conditions: Escherichia coli KNK 437, BHI agar, 35°-37° C., 20 to 24 hours
# Experimental: as §1, §2, §3
# [4] = test system: Klebsiella pneumoniae ATCC 8045; experiment: In vitro antibacterial activity, agar dilution MIC; format: cell-based; conditions: Klebsiella pneumoniae ATCC 8045, BHI agar, 35°-37° C., 20 to 24 hours
# Experimental: as §1, §2, §3
# Micrococcus luteus 4698 = experiment: In vitro antibacterial activity, agar dilution MIC; format: cell-based
# Experimental: as §1, §2, §3
# [5] = test system: Providencia stuartii CMX 640; experiment: In vitro antibacterial activity, agar dilution MIC; format: cell-based; conditions: Providencia stuartii CMX 640, BHI agar, 35°-37° C., 20 to 24 hours
# Experimental: as §1, §2, §3
# [6] = test system: Pseudomonas aeruginosa 2862; experiment: In vitro antibacterial activity, agar dilution MIC; format: cell-based; conditions: Pseudomonas aeruginosa 2862, BHI agar, 35°-37° C., 20 to 24 hours
# Experimental: as §1, §2, §3
# [7] = test system: Pseudomonas aeruginosa 5263; experiment: In vitro antibacterial activity, agar dilution MIC; format: cell-based; conditions: Pseudomonas aeruginosa 5263, BHI agar, 35°-37° C., 20 to 24 hours
# Experimental: as §1, §2, §3
# [8] = test system: Pseudomonas aeruginosa A5007; experiment: In vitro antibacterial activity, agar dilution MIC; format: cell-based; conditions: Pseudomonas aeruginosa A5007, BHI agar, 35°-37° C., 20 to 24 hours
# Experimental: as §1, §2, §3
# [9] = test system: Pseudomonas aeruginosa BMH10; experiment: In vitro antibacterial activity, agar dilution MIC; format: cell-based; conditions: Pseudomonas aeruginosa BMH10, BHI agar, 35°-37° C., 20 to 24 hours
# Experimental: as §1, §2, §3
# [10] = test system: Pseudomonas aeruginosa K799/WT; experiment: In vitro antibacterial activity, agar dilution MIC; format: cell-based; conditions: Pseudomonas aeruginosa K799/WT, BHI agar, 35°-37° C., 20 to 24 hours
# Experimental: as §1, §2, §3
# Pseudomonas cepacia 2961 = experiment: In vitro antibacterial activity, agar dilution MIC; format: cell-based; conditions: Pseudomonas cepacia 2961, BHI agar, 35°-37° C., 20 to 24 hours
# Experimental: as §1, §2, §3
# [11] = test system: Staphylococcus aureus 1775 Cipro R; experiment: In vitro antibacterial activity, agar dilution MIC; format: cell-based; conditions: Staphylococcus aureus 1775 Cipro R, BHI agar, 35°-37° C., 20 to 24 hours
# Experimental: as §1, §2, §3
# [12] = test system: Staphylococcus aureus A5177; experiment: In vitro antibacterial activity, agar dilution MIC; format: cell-based; conditions: Staphylococcus aureus A5177, BHI agar, 35°-37° C., 20 to 24 hours
# Experimental: as §1, §2, §3
# [13] = test system: Staphylococcus aureus A5278; experiment: In vitro antibacterial activity, agar dilution MIC; format: cell-based; conditions: Staphylococcus aureus A5278, BHI agar, 35°-37° C., 20 to 24 hours
# Experimental: as §1, §2, §3
# [14] = test system: Staphylococcus aureus ATCC 6538P; experiment: In vitro antibacterial activity, agar dilution MIC; format: cell-based
# Experimental: as §1, §2, §3
# [15] = test system: Staphylococcus aureus CMX 553; experiment: In vitro antibacterial activity, agar dilution MIC; format: cell-based
# Experimental: as §1, §2, §3
# [16] = test system: Staphylococcus aureus CMX 642a; experiment: In vitro antibacterial activity, agar dilution MIC; format: cell-based
# Experimental: as §1, §2, §3
# [17] = test system: Staphylococcus aureus NCTC 10649; experiment: In vitro antibacterial activity, agar dilution MIC; format: cell-based
# Experimental: as §1, §2, §3
# [18] = test system: Staphylococcus epidermidis 3519; experiment: In vitro antibacterial activity, agar dilution MIC; format: cell-based
# Experimental: as §1, §2, §3
# [19] = test system: Streptococcus agalactiae 508; experiment: In vitro antibacterial activity, agar dilution MIC; format: cell-based
# Experimental: as §1, §2, §3
# [20] = test system: Streptococcus bovis A5169; experiment: In vitro antibacterial activity, agar dilution MIC; format: cell-based
# Experimental: as §1, §2, §3
# [21] = test system: Streptococcus pyogenes 2548 induc; experiment: In vitro antibacterial activity, agar dilution MIC; format: cell-based
# Experimental: as §1, §2, §3
# [22] = test system: Streptococcus pyogenes 930 const; experiment: In vitro antibacterial activity, agar dilution MIC; format: cell-based; conditions: Streptococcus pyogenes 930 const, BHI agar, 35°-37° C., 20 to 24 hours
# Experimental: as §1, §2, §3
# [23] = test system: Streptococcus pyogenes EES61; experiment: In vitro antibacterial activity, agar dilution MIC; format: cell-based
# Experimental: as §1, §2, §3
# Candida albicans CCH 442 = experiment: microbe, parasite or virus in culture; conditions: CCH442
# Experimental: as §1, §2, §3
# Escherichia coli SS = experiment: microbe, parasite or virus in culture
# Experimental: as §1, §2, §3
# [24] = test system: Micrococcus luteus ATCC 9341; experiment: microbe, parasite or virus in culture
# Experimental: as §1, §2, §3
# [25] = test system: Nocardia asteroides ATCC 9970; experiment: microbe, parasite or virus in culture; conditions: ATCC9970
# Experimental: as §1, §2, §3
# [26] = test system: Pseudomonas aeruginosa K799/61; experiment: In vitro antibacterial activity, agar dilution MIC; format: cell-based; conditions: BHI agar, 35°-37° C., 20 to 24 hours
# [27] = test system: Mycobacterium smegmatis ATCC 114; experiment: In vitro antibacterial activity, agar dilution MIC; format: cell-based; conditions: Mycolicibacterium smegmatis, ATCC114, BHI agar, 35°-37° C., 20 to 24 hours
molecule,measurement,setting,value
"CC[C@H]1OC(=O)[C@H](C)[C@@H](O[C@H]2C[C@](C)(F)[C@@H](OC)[C@H](C)O2)[C@H](C)[C@@H](O[C@@H]2O[C@H](C)C[C@H](N(C)C)[C@H]2O)[C@](C)(O)C[C@@H](C)C(=O)[C@H](C)[C@@H](O)[C@]1(C)O [Example 9, (3""s)--3""-Desmethoxy-3""-fluoro-4""-O-methylerythromycin A]",MIC,"[1]; CMX669, read-out: MIC",> 100 mg/L
same,MIC,"[2]; Klebsiella aerogenes, ATCC13048, read-out: MIC",> 100 mg/L
same,MIC,"[3]; Enterococcus faecium, ATCC8043",0.39 mg/L
same,MIC,"Escherichia coli DC-2; DC2, read-out: MIC",> 100 mg/L
same,MIC,Escherichia coli H560; read-out: MIC,> 100 mg/L
same,MIC,Escherichia coli Juhl; read-out: MIC,> 100 mg/L
same,MIC,"Escherichia coli KNK 437; KNK437, read-out: MIC",> 100 mg/L
same,MIC,"[4]; ATCC8045, read-out: MIC",> 100 mg/L
same,MIC,"Micrococcus luteus 4698; Micrococcus luteus, 4698",0.39 mg/L
same,MIC,"[5]; CMX640, read-out: MIC",> 100 mg/L
same,MIC,[6]; read-out: MIC,> 100 mg/L
same,MIC,[7]; read-out: MIC,> 100 mg/L
same,MIC,[8]; read-out: MIC,> 100 mg/L
same,MIC,[9]; read-out: MIC,> 100 mg/L
same,MIC,[10]; read-out: MIC,> 100 mg/L
same,MIC,"Pseudomonas cepacia 2961; Burkholderia cepacia, read-out: MIC",> 100 mg/L
same,MIC,"[11]; 1775CIPROR, read-out: MIC",> 100 mg/L
same,MIC,[12]; read-out: MIC,12.5 mg/L
same,MIC,[13]; read-out: MIC,> 100 mg/L
same,MIC,"[14]; Staphylococcus aureus, ATCC6538P",1.56 mg/L
same,MIC,"[15]; Staphylococcus aureus, CMX553",1.56 mg/L
same,MIC,"[16]; Staphylococcus aureus, CMX642A",1.56 mg/L
same,MIC,"[17]; Staphylococcus aureus, NCTC10649",1.56 mg/L
same,MIC,"[18]; Staphylococcus epidermidis, 3519",1.56 mg/L
same,MIC,"[19]; Streptococcus agalactiae, 508",0.39 mg/L
same,MIC,"[20]; Streptococcus equinus, A5169",0.2 mg/L
same,MIC,"[21]; Streptococcus pyogenes, 2548INDUC",3.1 mg/L
same,MIC,[22]; read-out: MIC,> 100 mg/L
same,MIC,"[23]; Streptococcus pyogenes, EES61",0.39 mg/L
same,MIC,Candida albicans CCH 442,> 100 mg/L
same,MIC,Escherichia coli SS; Escherichia coli,1.56 mg/L
same,MIC,"[24]; Micrococcus luteus, ATCC9341",0.2 mg/L
same,MIC,[25],0.2 mg/L
same,MIC,[26]; read-out: MIC,50 mg/L
same,MIC,[27],12.5 mg/L
"(3""S)-11-O,12-O-carbonyl-3""-fluoro-3""-desmethoxy-4""-O-methylerythromycin A [Example 15]",MIC,[1],100 mg/L
same,MIC,[2],> 100 mg/L
same,MIC,"[3]; Enterococcus faecium ATCC 8043, BHI agar, 35°-37° C., 20 to 24 hours",0.05 mg/L
same,MIC,Escherichia coli DC-2,100 mg/L
same,MIC,Escherichia coli H560,50 mg/L
same,MIC,Escherichia coli Juhl,100 mg/L
same,MIC,Escherichia coli KNK 437,100 mg/L
same,MIC,[4],100 mg/L
same,MIC,"Micrococcus luteus 4698; Micrococcus luteus 4698, BHI agar, 35°-37° C., 20 to 24 hours",0.1 mg/L
same,MIC,[5],> 100 mg/L
same,MIC,[6],> 100 mg/L
same,MIC,[7],> 100 mg/L
same,MIC,[8],> 100 mg/L
same,MIC,[9],> 100 mg/L
same,MIC,[10],100 mg/L
same,MIC,Pseudomonas cepacia 2961,25 mg/L
same,MIC,[11],> 100 mg/L
same,MIC,[12],6.2 mg/L
same,MIC,[13],> 100 mg/L
same,MIC,"[14]; Staphylococcus aureus ATCC 6538P, BHI agar, 35°-37° C., 20 to 24 hours",0.39 mg/L
same,MIC,"[15]; Staphylococcus aureus CMX 553, BHI agar, 35°-37° C., 20 to 24 hours",0.39 mg/L
same,MIC,"[16]; Staphylococcus aureus CMX 642a, BHI agar, 35°-37° C., 20 to 24 hours",0.39 mg/L
same,MIC,"[17]; Staphylococcus aureus NCTC 10649, BHI agar, 35°-37° C., 20 to 24 hours",0.39 mg/L
same,MIC,"[18]; Staphylococcus epidermidis 3519, BHI agar, 35°-37° C., 20 to 24 hours",0.39 mg/L
same,MIC,"[19]; Streptococcus agalactiae 508, BHI agar, 35°-37° C., 20 to 24 hours",0.05 mg/L
same,MIC,"[20]; Streptococcus bovis A5169, BHI agar, 35°-37° C., 20 to 24 hours",0.01 mg/L
same,MIC,"[21]; Streptococcus pyogenes 2548 induc, BHI agar, 35°-37° C., 20 to 24 hours",0.39 mg/L
same,MIC,[22],> 100 mg/L
same,MIC,"[23]; Streptococcus pyogenes EES61, BHI agar, 35°-37° C., 20 to 24 hours",0.05 mg/L
same,MIC,"Escherichia coli SS; Escherichia coli SS, BHI agar, 35°-37° C., 20 to 24 hours",0.2 mg/L
same,MIC,"[24]; Micrococcus luteus ATCC 9341, BHI agar, 35°-37° C., 20 to 24 hours",0.01 mg/L
same,MIC,[26],3.1 mg/L
